Molecules are shown by their SMILES. Values joined by “and” are separate entries in the source; they are usually repeats but may differ in a detail not shown here. Identical values can stand only once. Like-named read-outs stand apart in the source and are kept apart here.

Data set [1] is described as follows: Ames tests (mutagenicity and toxicity), with or without rat liver metabolic activation system S9. The class given is cell-based. The text has this:
Among the important criteria for topically applied sunscreens, safety in use has the highest priority. It was thus necessary to investigate the mutagenicity of the maleimide and maleamic acid derivatives of sunscreens. Six compounds of the present invention were chosen as representative of the main classes of sunscreen and submitted for Ames tests.
Background: In the Ames test, an excess of revertant colonies over the control signals mutagenicity.

For data set [2] the following is noted: background, known sunscreen absorbers; cited from earlier work.
Data set [3] is described as follows: UV absorption of the chromophore (λmax, ε). In kind it is physicochemical. Particulars: for ε: at λmax, in M-1·cm-1 (unit assumed). Details: key to λmax: λmax in nm. The text has this: This can sometimes be a problem since if the change in λmax is too great, the chromophore may no longer absorb light in the UVA or UVB wavelength range.
An example of this change is 4-aminobenzophenone which has a λmax of 318 nm which is in the UVB range. When the amino group is replaced by a maleamic acid group, the λmax of the chromophore shifts to 306 nm which is still within the UVB range but when the amino group is replaced by a maleimide residue, the λmax falls to 258 nm. This is outside the range of UVB although there is a restoration of UVB activity when the maleimide is reacted with cysteine as it would be when applied to the skin (λmax=293 nm). The changes are easily rationalised on the basis of conjugative effects but the effects of attaching Michael acceptors to the various chromophores which may be used cannot always easily be predicted. This problem can be overcome to a large extent simply by separating the chromophore from the Michael acceptor using a spacer. Particularly useful compounds therefore include those in which the group R is C1 -C8 alkyl-YZ, C2 -C8 alkenyl-YZ or C2 -C8 alkynyl-YZR and especially those in which Y is O. Compounds in which a hexyloxy linker is used (that is, R is (CH2)6 OZ) are especially preferred.

In another data set the test system is DNA. Particulars: cited from earlier work.
Data set [4] is described as follows: Reaction of maleimide derivatives with L-cysteine ethyl ester (tlc). Particulars: room temperature. The procedure: In order to underpin the principle of reaction of maleimido derivatives with the cysteine thiol groups, two model reactions were studied. Thus the reactions between L-cysteine ethyl ester and N-phenylmaleimide and N-(4-benzoylphenyl)maleimide were carried out. In each case, the reaction produced the diastereoisomeric product mixtures in reasonable yields at room temperature. All starting maleimides had reacted within 30 minutes (tlc). The two products were isolated and characterised.
The mildness and rapidity of these reactions indicate that the maleimido groups confer the ability for reaction with the nucleophilic groups of keratin.

The next data set relates to hair keratin. As to the kind of experiment: Substantivity test with human hair (uv assay of supernatant). In kind it is binding. The procedure: Initial tests were conducted with human hair specially cleaned and prepared to provide as near to a standard substrate as possible. The method adopted utilised the reduction in ultra-violet absorptivity in the supernatant solution in contact with hair when the compound under test was absorbed into the hair surface. Standard and control solutions were employed. […] Similar tests with hair have been quoted in the patent literature as evidence, and as a standard test, for substantivity of sunscreens and other cosmetics.

The next data set relates to horn hoof keratin. As to the kind of experiment: Substantivity test with powdered horn-hoof keratin (uv absorptivity). The class given is binding, various animals. The text has this: Keratin prepared from the horns and hooves of various animals is commercially available, and this was used in a similar way to the hair (above). The keratin was finely powdered and stirred with a solution of the maleimido compound and its substantivity estimated by uv absorptivity measurements.

Where [5] appears, read: effect of attaching Michael acceptor to 4-aminobenzophenone chromophore.
[6] abbreviates: characterisation in the Examples, solvent not stated.
[7] abbreviates: uv assay, 1.0000 g hair, single tests (0.4520 g and 0.4670 g maleimide added).
Setting [8] is: 1.0000 g horn hoof keratin, single tests (0.4360 g and 0.4741 g maleimide added).
Where [9] appears, read: horn hoof keratin, average of the two tests.

As for `CCN1C(=O)C=CC1=O`, the Toxicity in data set [1] (+S9) is 50 μG plate^-1; in data set [1] (-S9), 25 μG plate^-1.

As to `CCCCC(CC)COC(=O)C=Cc1ccc(OC)cc1` (centres unmarked) [2-ethylhexyl-4'-methoxycinnamate], the λmax in data set [2] is on record as 308 nm.

For the molecule `COc1ccc(C(=O)CC(=O)c2ccc(C(C)(C)C)cc2)cc1` [4-^t butyl-4'-methoxydibenzoylmethane], the λmax in data set [2] is on record as 355 nm.

`Nc1ccc(C(=O)c2ccccc2)cc1` [4-aminobenzophenone, reference compound] registered a λmax in data set [3] (setting [5]) of 318 nm.

As for `COc1c2ccoc2cc2oc(=O)ccc12` [5-methoxypsoralen (5-MOP), 5-methoxypsoralen], in the data set with DNA, the “photobinding to DNA” value is reported as “photobinds to DNA”, the photocarcinogenicity entry is given as “photocarcinogen” and the photomutagenicity result was “photomutagen”.

On to `O=C(O)/C=C\C(=O)Nc1ccc(C(=O)O)cc1` [Example 1, N-(4-carboxyphenyl)maleamic Acid], for which the Toxicity in data set [1] (+S9) and in data set [1] (-S9) was 5000 μG plate^-1 throughout.

On to `O=C(O)c1ccc(N2C(=O)C=CC2=O)cc1` [Example 2, N-(4-carboxyphenyl)maleimide], for which the Toxicity in data set [1] (+S9) and in data set [1] (-S9) was 500 μG plate^-1 each time.

In data set [3] (solvent not stated), `O=C(O)/C=C\C(=O)Nc1ccc(C(=O)c2ccccc2)cc1` [Example 3, N-(4-benzoylphenyl)maleamic Acid] displayed a ε of 20560. Besides, the λmax in data set [3] (setting [6]) and in data set [3] (setting [5]) was 306 nm throughout. The Toxicity in data set [1] (+S9) and in data set [1] (-S9) was 2500 μG plate^-1 throughout. Moreover, in data set [1] (Ames test, with or without S9), the Mutagenicity result is recorded as “Negative”.

In data set [3] (setting [5]), `O=C(c1ccccc1)c1ccc(N2C(=O)C=CC2=O)cc1` [Example 4, N-(4-benzoylphenyl)maleimide] showed a λmax of 258 nm. Moreover, the “time within which all starting maleimide had reacted” value in data set [4] was no more than 30 min. For the same molecule, the Toxicity in data set [1] (+S9) is 100 μG plate^-1; in data set [1] (-S9), 40 μG plate^-1.

Turning to `O=C(O)/C=C\C(=O)Nc1ccc(/C=C/C(=O)O)cc1` [Example 5, N-[4-(2-carboxy-(E)-ethenyl)phenyl]maleamic Acid], the Toxicity in data set [1] (+S9) and in data set [1] (-S9) was 5000 μG plate^-1 throughout.

In the case of `O=C(O)/C=C/c1ccc(N2C(=O)C=CC2=O)cc1` [Example 6, N-[4-(2-carboxy-(E)-ethenyl)phenyl]maleimide], the Toxicity in data set [1] (+S9) and in data set [1] (-S9) was 200 μG plate^-1 each time.

`COC(=O)c1ccc(NC(=O)/C=C\C(=O)O)cc1` [Example 7, N-(4-methoxycarbonylphenyl)maleamic Acid] came in with a ε in data set [3] (solvent not stated) of 16013. Further, the λmax in data set [3] (setting [6]) came out at 294 nm.

On to `COC(=O)c1ccc(N2C(=O)C=CC2=O)cc1` [Example 8, N-(4-methoxycarbonylphenyl)maleimide], for which the ε in data set [3] (solvent not stated) stood at 15844. In addition, the λmax in data set [3] (setting [6]) came out at 245 nm.

As to `CCCCOC(=O)c1ccc(NC(=O)/C=C\C(=O)O)cc1` [Example 9, N-(4-n-butyloxycarbonylphenyl)maleamic Acid], in data set [3] (solvent not stated), the ε was found to be 15806. In addition, the λmax in data set [3] (setting [6]) turned out to be 294 nm.

In the case of `CCCCOC(=O)c1ccc(N2C(=O)C=CC2=O)cc1` [Example 10, N-(4-n-butyloxycarbonylphenyl)maleimide], the ε in data set [3] (solvent not stated) was determined as 15563. Further, the λmax in data set [3] (characterisation in Example 10, unit not given) came to 245.

In turn, `O=C(O)/C=C\C(=O)NCCCCCCOc1ccc(C(=O)c2ccccc2)cc1` [Example 11, N-[6-(4-benzoylphenoxy)-hexyl]-maleamic Acid] returned a λmax in data set [3] (CH2 Cl2) of 285 nm. The molecule further had a ε in data set [3] (CH2 Cl2) of 16047. Also, the Toxicity in data set [1] (+S9) and in data set [1] (-S9) was 2500 μG plate^-1 in each case.

For the molecule `O=C(c1ccccc1)c1ccc(OCCCCCCN2C(=O)C=CC2=O)cc1` [Example 12, N-[6-(4-benzoylphenoxy)-hexyl]-maleimide], in data set [3] (CH2 Cl2), the λmax stood at 286 nm and the ε amounted to 16590. The same molecule yielded a Toxicity in data set [1] (+S9) of 800 μG plate^-1. In data set [1] (-S9), the Toxicity was determined as 200 μG plate^-1.

Regarding `O=C1C=CC(=O)N1c1ccccc1` [N-phenylmaleimide], in data set [4], the “time within which all starting maleimide had reacted” value was no more than 30 min. Besides, in the data set with hair keratin (hair, average of the two tests), the Average substantivity was found to be 24.5% and the “Average wt maleimide absorbed” value is given as 0.1129 g. Also, the “reduction in ultra-violet absorptivity of supernatant in contact with hair” value in the data set on hair keratin (initial tests, in words) was “considerable reduction in absorptivity”. Besides, in the data set on hair keratin (setting [7]), the Substantivity was 18.5% and 30.4%; the Wt maleimide absorbed was 0.0837 g and 0.1421 g. Further, in the data set with horn hoof keratin (setting [8]), the Substantivity was 22.2% and 21.1%; the Wt maleimide absorbed was 0.0968 g and 0.1001 g. In the data set with horn hoof keratin (setting [9]), the Average substantivity came to 21.7% and the “Average wt maleimide absorbed” value was found to be 0.0985 g.

With `NC(CSC1CC(=O)N(c2ccc(C(=O)c3ccccc3)cc2)C1=O)C(=O)O` (centres unmarked) [maleimide reacted with cysteine], in data set [3] (setting [5]), the λmax is 293 nm.

The values above are taken from patent US5877204A, “Compounds containing a michael-acceptor, especially maleimide or maleic acid derivatives, directly or indirectly linked to a chromophore and their use in long lasting sunscreen compositions” (Vanguard Medica Limited, priority 1994, dated 1999).
